Measured values reported in patent US9102648B1, “Bioavailable diacylhydrazine ligands for modulating the expression of exogenous genes via an ecdysone receptor complex” (Intrexon Corporation, priority 2003, dated 2015).
Like-named read-outs stand apart in the source and are kept apart here.

Assays:
[1] = target: GAL4 DBD (1-147)-CfEcR(DEF)/VP16AD-βRXREF-LmUSPEF (Choristoneura fumiferana, UniProt O77240); assay: cell-based; conditions: for 27-63 assay Rel Max FI: maximum fold induction at any concentration relative to that of GS-E ligand, CHO 27-63 cells; for fold induction at 33 µM: read-out: Fold Induction, 27-63 Assay, 33 uM
[2] = system: mutated ecdysone receptor-based gene switch; assay: In vivo SEAP induction, ligand by IP injection; set-up: species or system C57BL/6 mouse; conditions: IP 26 nmol ligand
Experimental: Applicants' ligands are useful in various applications including gene therapy, expression of proteins of interest in host cells, production of transgenic organisms, and cell-based assays. In vivo induction of a reporter enzyme with various ligands of the present invention was evaluated in a C57BL/6 mouse model system containing a gene switch.
Each element of the gene switch was on a separate plasmid. Receptor expression was under the control of a CMV promoter (SEQ ID NO: 15). Induction was evaluated by the amount of reporter protein expressed in the presence of ligand.
SEAP expression in serum of mice was evaluated after electroporation of the gene switch into mouse quadriceps. Mice were anesthetized with 2 μL/g of a mixture of ketamine (100 mg/mL) and xylazine (20 mg/mL). Animals were then shaved, DNA vectors injected into the muscle in a volume of 2×50 μL polyglutamic acid (12 mg/mL water), electrode conductivity gel applied, and an electrode caliber (1 cm×1 cm; model 384) was placed on hind leg. The muscle was electroporated with 200 V/cm, 8 times, for 20 msec/pulse, at 1 sec time intervals. The transverse electrical field direction was reversed after the animals received half of the pulses. Electroporation was performed with an ECM 830 electroporator from BTX Molecular Delivery Systems.
In some experiments mice received an intraperitoneal injection (IP) of 2.6 μmol of ligand in 50 μL of DMSO 3 days after electroporation of the gene switch. In other experiments the concentration of ligand was decrease to 26 nmol/50 μL of DMSO/mouse. SEAP expression was evaluated 2-11 days after ligand administration. In other experiments ligand was administered in rodent chow. The chow was prepared by dissolving 2 g of ligand in 20 mL of acetone and adding it to 1 kg of LabDiet 5010 autoclavable chow from Purina Mills. This was thoroughly mixed in a Hobart mixer and then mixed for an additional 15 min in a Cross Blend mixer. Animals received chow ad libitum for 1, 2, or 3 days. All values are the average from four animals. Background SEAP in sera from animals treated with vector alone without ligand addition was 0-11 ng/mL serum.
Mouse serum was obtained by centrifugation of blood acquired by retroorbital bleeding with a small glass capillary tube. SEAP quantification was determined using a Clontech Great Escape chemiluminescence kit and by comparison with the Clontech SEAP standard.
Table 9: In vivo evaluation of ligand-mediated induction of a mutated ecdysone receptor-based gene switch. SEAP expression in serum of mice was evaluated after electroporation of the gene expression cassettes into mouse quadriceps. Mice received an IP injection of 2.6 μmol of ligand 3 days after electroporation. SEAP expression was evaluated 2-11 days after ligand administration. Each dose group was composed of four animals. Percentage of GS™-E ligand induction was determined by averaging SEAP expression from four animals divided by the average SEAP expression induced with GS™-E ligand and then multiplying by 100.
Table 10: Induction of gene switch expression with low concentrations of ligand. SEAP expression in serum of mice was evaluated after electroporation of the gene expression cassettes into mouse quadriceps. Mice received an IP injection of 26 nmol of ligand or 130 nmol GS™-E ligand 3 days after electroporation. SEAP expression was evaluated 2-7 days after ligand administration. Values are the average from 4 animals.

[3] = target: T1, Bombyx mori EcR (VP16 fusion, CVBE switch construct) (Bombyx mori, UniProt P49881); assay: Z3 Assay (HEK-293 cells with CVBE and 6XEcRE LacZ, β-galactosidase reporter); conditions: for fold induction at 3.3 µM: HEK293, read-out: Fold Induction, Z3 Assay, 3.3 uM; for Z3 assay Rel Max FI: maximum fold induction at any concentration relative to that of GS-E ligand; for Fold Induction, Z3 Assay, 3.3 uM: 3.3 uM ligand; for Fold Induction, Z3 Assay, 3.3 uM / Fold Induction, Z3 Assay, 33 uM: ligand treated / DMSO treated cells; for Fold Induction, Z3 Assay, 33 uM: 33 uM ligand; for fold induction at 33 µM: HEK293, read-out: Fold Induction, Z3 Assay, 33 uM
T1 sequence (P49881 86-606): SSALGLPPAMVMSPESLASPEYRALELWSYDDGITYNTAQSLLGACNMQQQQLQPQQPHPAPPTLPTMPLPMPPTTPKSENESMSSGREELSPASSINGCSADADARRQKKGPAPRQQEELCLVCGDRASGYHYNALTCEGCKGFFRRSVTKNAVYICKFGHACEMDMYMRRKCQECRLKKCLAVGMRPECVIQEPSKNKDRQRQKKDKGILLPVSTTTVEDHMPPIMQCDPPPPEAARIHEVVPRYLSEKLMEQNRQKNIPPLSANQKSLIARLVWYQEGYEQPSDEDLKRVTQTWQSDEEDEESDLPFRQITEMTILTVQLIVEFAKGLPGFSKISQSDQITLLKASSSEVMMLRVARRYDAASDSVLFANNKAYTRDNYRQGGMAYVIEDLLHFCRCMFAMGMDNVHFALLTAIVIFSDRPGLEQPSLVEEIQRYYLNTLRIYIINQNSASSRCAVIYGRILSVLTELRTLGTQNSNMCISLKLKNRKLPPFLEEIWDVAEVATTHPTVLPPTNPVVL
T1 sequence (P19793 1-462 partner): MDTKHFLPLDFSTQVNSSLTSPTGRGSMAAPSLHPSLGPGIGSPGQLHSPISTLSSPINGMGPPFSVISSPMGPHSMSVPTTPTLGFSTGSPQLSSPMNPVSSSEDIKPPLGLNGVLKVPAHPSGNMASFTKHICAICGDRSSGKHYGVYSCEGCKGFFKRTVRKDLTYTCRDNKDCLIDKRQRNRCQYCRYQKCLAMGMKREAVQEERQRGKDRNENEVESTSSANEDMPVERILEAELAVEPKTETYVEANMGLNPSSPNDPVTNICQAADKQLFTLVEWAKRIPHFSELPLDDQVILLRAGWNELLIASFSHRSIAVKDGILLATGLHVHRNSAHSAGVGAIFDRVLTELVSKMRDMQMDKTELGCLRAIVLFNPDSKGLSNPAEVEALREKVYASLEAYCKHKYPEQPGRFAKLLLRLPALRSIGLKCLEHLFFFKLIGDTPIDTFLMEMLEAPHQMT

[4] = target: GAL4 DBD-CfEcR(DEF)/VP16AD-MmRXRE (Choristoneura fumiferana, UniProt O77240); assay: 13B3 Assay (CHO stable cell line, luciferase reporter); conditions: for 13B3 assay Rel Max FI: maximum fold induction at any concentration relative to that of GS-E ligand, CHO 13B3 cells; for fold induction at 3.3 µM: read-out: Fold Induction, 13B3 Assay, 3.3 uM; for Fold Induction, 13B3 Assay, 3.3 uM: 3.3 uM ligand; for Fold Induction, 13B3 Assay, 3.3 uM / Fold Induction, 13B3 Assay, 33 uM: RLU ligand treated / RLU DMSO treated cells; for Fold Induction, 13B3 Assay, 33 uM: 33 uM ligand; for fold induction at 33 µM: read-out: Fold Induction, 13B3 Assay, 33 uM
Method in brief: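 Ligands dosed at 8 levels from 33 to 0.01 μM (DMSO stocks diluted 300-fold) onto the 13B3 CHO line carrying GAL4-DBD/CfEcR-DEF, VP16/MmRXR-DE and a GAL4-responsive luciferase gene.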

[5] = read-out: Z3 assay EC50, HEK-293 Z3 cells, β-galactosidase reporter, average of two wells
[6] = read-out: 13B3 EC50, CHO 13B3 stable cell line, luciferase reporter, 48 h, average of two wells

Structure (SMILES)	Z3 assay Rel Max FI ([3]; HEK-293 Z3 cells)	13B3 assay Rel Max FI [4]	Fold Induction, Z3 Assay, 3.3 uM ([3]; average of two wells)	EC50 [3, 5] [µM]	Fold Induction, 13B3 Assay, 33 uM ([4]; average of two wells)	Fold Induction, Z3 Assay, 33 uM ([3]; average of two wells)	further results
CCC(N(NC(=O)c1ccc2c(c1C)OCCO2)C(=O)c1cc(OC)c(C)c(OC)c1)C(C)(C)C (stereo not shown) [RG-115857, 3,5-Dimethoxy-4-methyl-benzoic acid N-(1-ethyl-2,2-dimethyl-propyl)-N′-(5-methyl-2,3-dihydro-benzo[1,4]dioxine-6-carbonyl)-hydrazide]							EC50 [1]: 0.013 µM; 27-63 assay Rel Max FI [1]: 1.140; fold induction at 33 µM [1]: 328; Secreted Alkaline Phosphatase Day 2 [2]: 574 ng/ml mouse sera; Secreted Alkaline Phosphatase Day 3 [2]: 401 ng/ml mouse sera
CCC(N(NC(=O)c1ccc2c(c1C)OCCO2)C(=O)c1cc(C)cc(C)c1)C(C)(C)C (stereo not shown) [RG-115856, 3,5-Dimethyl-benzoic acid N-(1-ethyl-2,2-dimethyl-propyl)-N′-(5-methyl-2,3-dihydro-benzo[1,4]dioxine-6-carbonyl)-hydrazide]							EC50 [1]: 0.003 µM; 27-63 assay Rel Max FI [1]: 0.879; fold induction at 33 µM [1]: 1760; Secreted Alkaline Phosphatase Day 2 [2]: 2,292 ng/ml mouse sera; Secreted Alkaline Phosphatase Day 3 [2]: 2,350 ng/ml mouse sera
CCc1c(C(=O)NN(C(=O)c2cc(C)cc(C)c2)C(CC)C(C)(C)C)ccc2c1OCCO2 (stereo not shown) [RG-115858, 3,5-dimethyl-benzoic acid N′-(5-ethyl-2,3-dihydro-benzo[1,4]dioxine-6-carbonyl)-N-(1-ethyl-2,2-dimethyl-propyl)-hydrazide]							EC50 [1]: 0.005 µM; 27-63 assay Rel Max FI [1]: 0.915; fold induction at 33 µM [1]: 182; Secreted Alkaline Phosphatase Day 2 [2]: 13,661 ng/ml mouse sera; Secreted Alkaline Phosphatase Day 3 [2]: 11,820 ng/ml mouse sera
CNCc1c(OC)cccc1C(=O)NN(C(=O)c1cc(C)cc(C)c1)C(C)(C)C [RG-115079, 3,5-dimethyl-benzoic acid N-tert-butyl-N′-(2-methylaminomethyl-3-methoxy-benzoyl)-hydrazide]	0.02	0.20					EC50 [3]: > 50 µM; fold induction at 3.3 µM [3]: 1; EC50 [4]: 0.02 µM; fold induction at 3.3 µM [4]: 3
COc1cc(C(=O)N(NC(=O)c2cccc(O)c2C)C(C)(C)C)cc(OC)c1C [RG-115220]	0.591	0.125	298	0.871	1143		Fold Induction, 13B3 Assay, 3.3 uM ([4]; average of two wells): 5; EC50 [4, 6]: > 50 µM
Cc1c(C(=O)NN(C(=O)c2ccccc2[S+](C)[O-])C(C)(C)C)ccc2c1OCCO2 (stereo not shown) [RG-115064]	0.031	0.000	1	> 50	415	3	Fold Induction, 13B3 Assay, 3.3 uM ([4]; average of two wells): 2; EC50 [4, 6]: > 50 µM
CCc1c(OC)cccc1C(=O)NN(C(=O)c1cc(OC)c(OC)c(OC)c1)C(C)(C)C [RG-115329]	0.892		259	2.57	5644	430	
COc1cccc(C(=O)NN(C(=O)c2cc(F)ccc2F)C(C)(C)C)c1C [RG-100603]					570	453	
CCc1c(OC)cccc1C(=O)NN(C(=O)c1cccc(F)c1)C(C)(C)C [RG-115515]	0.975		1306	0.617	1996	420	
C=CCOCc1c(OC)cccc1C(=O)NN(C(=O)c1cc(C)cc(C)c1)C(C)(C)C [RG-115003, 3,5-dimethyl-benzoic acid N′-(2-allyloxymethyl-3-methoxy-benzoyl)-N-tert-butyl-hydrazide]							fold induction at 33 µM [3]: 1280; fold induction at 33 µM [4]: 301
Cc1c(C(=O)NN(C(=O)c2cc(Cl)nc(Cl)c2)C(C)(C)C)ccc2c1OCCO2 [RG-115536]	0.950	0.734	488	0.126			Fold Induction, 13B3 Assay, 3.3 uM ([4]; average of two wells): 483; EC50 [4, 6]: 0.781 µM
CCc1ccc(C(=O)NN(C(=O)c2cc(C)ccc2[N+](=O)[O-])C(C)(C)C)cc1 [RG-101398]	0.712		1138	0.282	159	403	
CCc1c(C(=O)NN(C(=O)c2cccc(C(F)(F)F)c2)C(C)(C)C)ccc2c1OCO2 [RG-115260]					13	526	
CCc1c(OC)cccc1C(=O)NN(C(=O)c1cnc(C)cn1)C(C)(C)C [RG-115091]					1	61	
COc1cccc(C(=O)NN(C(=O)c2cc(C)cc(C)c2)C(C)(C)C)c1COC(C)=O [RG-115225, 3,5-dimethyl-benzoic acid N-tert-butyl-N′-(2-acetoxymethyl-3-methoxy-benzoyl)-hydrazide]	0.32	0.08					EC50 [3]: > 50 µM; fold induction at 3.3 µM [3]: 3; fold induction at 33 µM [3]: 571; EC50 [4]: 0.58 µM; fold induction at 3.3 µM [4]: 3; fold induction at 33 µM [4]: 8
